This is an account of results in the supplement of paper PMC6965134.

± gives the standard deviation of the averaged measurements.

This data set in a line: TIMS collisional cross section (CCS, N2) of the lipid ion; higher = larger ion cross section. The following applies: ionization mode: positive, one isomer drawn.

`CC/C=C\C/C=C\C/C=C\C/C=C\C/C=C\C/C=C\CCC(=O)O[C@H](COC(=O)CCCCCCC/C=C\C/C=C\CCCCC)COP(=O)([O-])OCC[N+](C)(C)C` [PC 18:2_22:6] (ion (formula + adduct): [C48H80NO8P+H] 1+): the “TIMS collisional cross section” value (sample type: Liver) is 292.5 Å². Turning to `CCCCCCCCCCCCCCCC(=O)OC[C@@H](COC(=O)CCCCCCCCCCCCCC)OC(=O)CCCCCCCCCCCCCC` [TG 15:0_15:0_16:0] (ion (formula + adduct): [C49H94O6+NH4] 1+), for the setting “sample type: HeLa”, the “TIMS collisional cross section” value was 308 Å². The same measure, in the same setting: the same measure for `CCCCCCCCCCCCCCCCC(=O)OC[C@@H](COC(=O)CCCCCCCCCCCC)OC(=O)CCCCCCCCCCCCCCC` [TG 13:0_16:0_17:0] (ion (formula + adduct): [C49H94O6+NH4] 1+): 308 Å².

As for `CCCCC/C=C\C/C=C\C/C=C\CCCCC(=O)O[C@H](COC(=O)CCCCCCCCCCCCCC)COP(=O)([O-])OCC[N+](C)(C)C` [PC 15:0@_18:3] (ion (formula + adduct): [C41H76NO8P+H] 1+), the “TIMS collisional cross section” value (sample type: HeLa) came out at 279.7 Å². In the case of `CC/C=C\C/C=C\C/C=C\C/C=C\C/C=C\C/C=C\CCC(=O)O[C@H](COC(=O)CCCCCCCCCCCCCCCCCC)COP(=O)([O-])OCC[N+](C)(C)C` [PC 19:0@_22:6] (ion (formula + adduct): [C49H86NO8P+H] 1+), the “TIMS collisional cross section” value (sample type: Liver) came out at 300.5 Å². As to `CCCCCCCCCCCCCCCCC(=O)OC[C@@H](COC(=O)CCCCCCCCCCC)OC(=O)CCCCCCCCCCCCCC` [TG 12:0_15:0_17:0] (ion (formula + adduct): [C47H90O6+NH4] 1+), for the setting “sample type: plasma”, the “TIMS collisional cross section” value is 302.1 Å².

As for `CCCCC/C=C\C/C=C\CCCCCCCC(=O)OC[C@@H](COC(=O)CCCCCCCCCCCCCC)OC(=O)CCCCCCC/C=C\CCCCCCCC` [TG 15:0_18:1_18:2] (ion (formula + adduct): [C54H98O6+NH4] 1+), the “TIMS collisional cross section” value (sample type: plasma) is on record as 316.6 Å². Turning to `CCCCCCCC/C=C\CCCCCCCC(=O)OC[C@H](CO)OC(=O)CCCCCCC/C=C\CCCCCCCC` [DG 18:1_18:1_0:0] (ion (formula + adduct): [C39H72O5+NH4] 1+), the “TIMS collisional cross section” value (sample type: HeLa) was determined as 265.2 Å², the “TIMS collisional cross section” value (sample type: Liver) amounted to 265.5 Å² and the “TIMS collisional cross section” value (sample type: plasma) is on record as 265.9 ± 0.71 Å². On to `CCC/C=C\C/C=C\CCCCCCCCCC(=O)O[C@H](COC(=O)CCCCCCCCCCCCC)COP(=O)([O-])OCC[N+](C)(C)C` [PC 14:0_18:2] (ion (formula + adduct): [C40H76NO8P+H] 1+), for which the “TIMS collisional cross section” value is, setting by setting: (sample type: HeLa) 279.2 Å²; (sample type: plasma) 278.7 Å². As for `CCCCC/C=C\C/C=C\C/C=C\C/C=C\CCCC(=O)O[C@H](CO)COP(=O)([O-])OCC[N+](C)(C)C` [LPC 20:4] (ion (formula + adduct): [C28H50NO7P+H] 1+), the “TIMS collisional cross section” value (sample type: plasma) was found to be 231.1 Å². `CCCCCCCCCCCCCCCC(=O)OC[C@H](COP(=O)([O-])OCC[N+](C)(C)C)OC(=O)CCCC=O` [Oxidized PC 16:0_5:0@] (ion (formula + adduct): [C29H56NO9P+H] 1+): the “TIMS collisional cross section” value is, setting by setting: (sample type: Liver) 245.3 Å²; (sample type: plasma) 245.55 ± 0.35 Å². For `CCCCCCCCCCCCC/C=C/C=C/C(=O)OC[C@H](COP(=O)([O-])OCC[N+](C)(C)C)OC(=O)/C=C/C=C/CCCCCCCCCCCCC` [PC 18:2_18:2] (ion (formula + adduct): [C44H80NO8P+H] 1+), the “TIMS collisional cross section” value by setting is: (sample type: HeLa) 287.6 Å²; (sample type: plasma) 286.9 Å².

For `CCCCCCCC/C=C\CCCCCCCC(=O)OC[C@@H](COC(=O)CCCCCCCCCCCCCCC)OC(=O)CCCCCCCCCCCCCCCCC` [TG 16:0_18:0_18:1] (ion (formula + adduct): [C55H104O6+NH4] 1+), the “TIMS collisional cross section” value turned out to be 324.4 Å² (sample type: HeLa), 324.5 ± 0.14 Å² (sample type: Liver) and 324.45 ± 0.35 Å² (sample type: plasma). As to `CCCCCCC/C=C\CCCCCCCC(=O)O[C@@H](COC(=O)CCCCCCC/C=C\CCCCCCCC)COC(=O)CCCCCCCCCCCCC` [TG 14:0_17:1_18:1] (ion (formula + adduct): [C52H96O6+NH4] 1+), the “TIMS collisional cross section” value is reported as 312.9 Å² (sample type: HeLa) and 313.6 Å² (sample type: Liver). On to `CCCCCCCC/C=C\CCCCCCCCCCCC(=O)OC[C@@H](COC(=O)CCCCCCCCCCCCCCCCC)OC(=O)CCCCCCCCCCC/C=C\CCCCCCCC` [TG 18:0_22:1_22:1] (ion (formula + adduct): [C65H122O6+NH4] 1+), for which, under “sample type: HeLa”, the “TIMS collisional cross section” value came out at 350.2 Å².

Take `CCCC/C=C\CCCCCCCC(=O)OC[C@H](COC(=O)CCCCCCC/C=C\CCCCCC)OC(=O)CCCCCCCCCCCCCCC` [TG 14:1_16:0_16:1] (ion (formula + adduct): [C49H90O6+NH4] 1+): the “TIMS collisional cross section” value (sample type: HeLa) is on record as 303.9 ± 0.85 Å², the “TIMS collisional cross section” value (sample type: Liver) is given as 302.9 Å² and the “TIMS collisional cross section” value (sample type: plasma) came to 303.9 ± 0.28 Å². In the same order, the values of `CCCC/C=C\CCCCCCCC(=O)OC[C@H](COC(=O)CCCCCCC/C=C\CCCCCC)OC(=O)CCCCCCCCCCCCCC` [TG 14:1_15:0_16:1] (ion (formula + adduct): [C48H88O6+NH4] 1+) are 300.7 Å², 300.3 Å² and 300.5 Å². With `CCCCC/C=C\C/C=C\CCCCCCCC(=O)O[C@H](COC(=O)CCCCCCC/C=C\CCCCCCCC)COC(=O)CCCCCCCCC/C=C\CCCCCCCC` [TG 18:1_18:2_20:1] (ion (formula + adduct): [C59H106O6+NH4] 1+), the “TIMS collisional cross section” value reads like this: (sample type: HeLa) 331.8 Å²; (sample type: plasma) 330.8 Å². In the case of `CCCCCCCCCCCCCCCCCCCCCC(=O)O[C@@H](CO)COC(=O)CCCCCCCCCCCCCCC` [DG 16:0_22:0_0:0] (ion (formula + adduct): [C41H80O5+NH4] 1+), the “TIMS collisional cross section” value (sample type: HeLa) turned out to be 279.1 Å².

Regarding `CC/C=C\C/C=C\C/C=C\C/C=C\C/C=C\C/C=C\CCC(=O)OC[C@@H](COC(=O)CCCCCCC/C=C\C/C=C\CCCCC)OC(=O)CC/C=C\C/C=C\C/C=C\C/C=C\C/C=C\C/C=C\CC` [TG 18:2_22:6_22:6] (ion (formula + adduct): [C65H98O6+NH4] 1+), the “TIMS collisional cross section” value (sample type: Liver) is reported as 333.6 Å². Take `CCCCC/C=C\C/C=C\C/C=C\C/C=C\CCCC(=O)O[C@H](COC(=O)CCCCCCC/C=C\C/C=C\CCCCC)COP(=O)([O-])OCC[N+](C)(C)C` [PC 18:2@_20:4] (ion (formula + adduct): [C46H80NO8P+H] 1+): the “TIMS collisional cross section” value (sample type: Liver) was determined as 290.9 Å². For the molecule `CCCCC/C=C\C/C=C\CCCCCCCCCC(=O)O[C@H](COC(=O)CCCCCCC/C=C\C/C=C\CCCCC)COC(=O)CCCCCCCCCCCCCCCCCCCCC` [TG 18:2_20:2_22:0] (ion (formula + adduct): [C63H114O6+NH4] 1+), the “TIMS collisional cross section” value (sample type: Liver) worked out at 341.4 Å². In the case of `CCCCC/C=C\C/C=C\C/C=C\C/C=C\CCCCCC(=O)OC[C@@H](COC(=O)CCCCCCCCCCCCCCC)OC(=O)CCCCCCC/C=C\CCCCCCCC` [TG 16:0_18:1_22:4] (ion (formula + adduct): [C59H104O6+NH4] 1+), under “sample type: plasma”, the “TIMS collisional cross section” value is recorded as 329.9 Å².

In the case of `CCCCC/C=C\C/C=C\C/C=C\CCCCC(=O)O[C@H](COC(=O)CCCCCCC/C=C\CCCCCC)COP(=O)(O)OCCN` [PE 16:1@_18:3] (ion (formula + adduct): [C39H70NO8P+H] 1+), the “TIMS collisional cross section” value (sample type: Liver) is 266 Å².

Take `CC/C=C\C/C=C\C/C=C\C/C=C\C/C=C\CCCCCC(=O)OC[C@@H](COC(=O)CCCCCCCCCCCCCCC)OC(=O)CCCCCCC/C=C\CCCCCCCCC` [TG 16:0_19:1_22:5] (ion (formula + adduct): [C60H104O6+NH4] 1+): where the note is “sample type: HeLa”, the “TIMS collisional cross section” value is reported as 331.2 Å². In the case of `CCCCCCCCCCCCC/C=C/[C@@H](O)[C@H](CO[C@@H]1O[C@H](CO)[C@@H](O)C(O)C1O)NC(=O)CCCCCCCCCCCCCCCCCCCCCCC` (some centres undefined) [GlcCer d18:1_24:0@] (ion (formula + adduct): [C48H93NO8+H] 1+), the “TIMS collisional cross section” value reads like this: (sample type: HeLa) 304.2 Å²; (sample type: Liver) 304.1 Å².

With `CCCCC/C=C\C/C=C\CCCCCCCC(=O)O[C@H](COCCCCCCCCCCCCCCCCCC)COP(=O)([O-])OCC[N+](C)(C)C` [PC O- 18:0@_18:2] (ion (formula + adduct): [C44H86NO7P+H] 1+), the “TIMS collisional cross section” value (sample type: plasma) worked out at 294.7 Å². On to `CCCCC/C=C\C[C@H](O)/C=C/C=C\C/C=C\CCCC(=O)O[C@H](COC(=O)CCCCCCCCCCCCCCCCC)COP(=O)([O-])OCC[N+](C)(C)C` [Oxidized PC 18:0_20:4] (ion (formula + adduct): [C46H84NO9P+H] 1+), for which the “TIMS collisional cross section” value (sample type: plasma) is reported as 296.7 Å². As for `CCCCC/C=C\C/C=C\CCCCCCCC(=O)O[C@H](COC(=O)CCCCCCC/C=C\CCCCCC)COP(=O)([O-])OCC[N+](C)(C)C` [PC 16:1_18:2] (ion (formula + adduct): [C42H78NO8P+H] 1+), the “TIMS collisional cross section” value amounted to 282.6 Å² (sample type: HeLa), 282.8 Å² (sample type: Liver) and 282.6 Å² (sample type: plasma). With `CC/C=C\C/C=C\C/C=C\C/C=C\C/C=C\CCCCCC(=O)O[C@H](COCCCCCCCCCCCCCCCC)COP(=O)([O-])OCC[N+](C)(C)C` [PC O- 16:0@_22:5] (ion (formula + adduct): [C46H84NO7P+H] 1+), the “TIMS collisional cross section” value (sample type: HeLa) is 294.4 Å². For `CCCCC/C=C\C/C=C\CCCCCCCC(=O)O[C@H](COC(=O)CCCCCCC/C=C\CCCCCCCC)COC(=O)CCCCCCC/C=C\CCCCCCCCC` [TG 18:1_18:2_19:1] (ion (formula + adduct): [C58H104O6+NH4] 1+), the “TIMS collisional cross section” value reads like this: (sample type: HeLa) 327.7 Å²; (sample type: Liver) 327 Å²; (sample type: plasma) 327.3 Å².
